Patent US9200005B2, “Inhibitor compounds of phosphodiesterase type 10A” (AbbVie Deutschland GmbH & Co. KG, priority 2013, dated 2015)
Structures can show the parent of a compound that is named as a salt.

Key:
[1] = Determination of the microsomal half-life / microsomal clearance, rat liver microsomes; format: in vitro ADME; conditions: 0.5 μM test substance, 0.25 mg of microsomal protein/mL, NADPH, 37° C.
Procedure: (§1) b) Determination of the Microsomal Half-Life:
(§2) The metabolic stability of the compounds of the invention was determined in the following assay.
(§3) The test substances were incubated in a concentration of 0.5 μM as follows:
(§4) 0.5 μM test substance are preincubated together with liver microsomes from different species (from rat, human or other species) (0.25 mg of microsomal protein/mL) in 0.05 M potassium phosphate buffer of pH 7.4 in microtiter plates at 37° C. for 5 min. The reaction is started by adding NADPH (1 mg/mL). After 0, 5, 10, 15, 20 and 30 min, 50 μl aliquots are removed, and the reaction is immediately stopped and cooled with the same volume of acetonitrile. The samples are frozen until analyzed. The remaining concentration of undegraded test substance is determined by MSMS. The half-life (T½) is determined from the gradient of the signal of test substance/unit time plot, it being possible to calculate the half-life of the test substance, assuming first order kinetics, from the decrease in the concentration of the compound with time. The microsomal clearance (mCl) is calculated from mCl=ln 2/T½/(content of microsomal protein in mg/mL)×1000 [mL/min/mg] (modified from references: Di, The Society for Biomoleculur Screening, 2003, 453-462; Obach, DMD, 1999 vol 27. N 11, 1350-1359).

[2] = Determination of the microsomal half-life / microsomal clearance, human liver microsomes; format: in vitro ADME; conditions: 0.5 μM test substance, 0.25 mg of microsomal protein/mL, NADPH, 37° C.
Procedure: as §1, §2, §3, §4

Row | Rat mCl [1] | Human mCl [2] | Structure (SMILES) | Rat mCl ([1]; bis(trifluoroacetate))
1 | ++ (++: <100 μl min^−1 mg^−1) | + (+: 100-220 μl min^−1 mg^−1) | Cn1nc(OCc2ccc(Cl)c(Cl)c2)c2scc(-c3ccncc3)c2c1=O [Example 77, 7-[(3,4-dichlorobenzyl)oxy]-5-methyl-3-(pyridin-4-yl)thieno[2,3-d]pyridazin-4(5H)-one] | –
2 | ++ (++: <100 μl min^−1 mg^−1) | + (+: 100-220 μl min^−1 mg^−1) | CN1CCN(Cc2cccc(-c3csc4c(-c5ccncc5)nn(C)c(=O)c34)c2)CC1.O=C(O)C(F)(F)F.O=C(O)C(F)(F)F.O=C(O)C(F)(F)F [Example 42, 5-methyl-3-{3-[(4-methylpiperazin-1-yl)methyl]phenyl}-7-(pyridin-4-yl)thieno[2,3-d]pyridazin-4(5H)-one tris(trifluoroacetate)] | –
3 | ++ (++: <100 μl min^−1 mg^−1) | ++ (++: <100 μl min^−1 mg^−1) | Cn1nc(-c2ccc(OC(F)(F)F)cc2)c2scc(-c3ccncc3)c2c1=O [Example 101, 5-methyl-3-(pyridin-4-yl)-7-[4-(trifluoromethoxy)phenyl]thieno[2,3-d]pyridazin-4(5H)-one] | –
4 | ++ (++: <100 μl min^−1 mg^−1) | ++ (++: <100 μl min^−1 mg^−1) | COc1ncc(-c2csc3c(-c4ccncc4)nn(C)c(=O)c23)cn1 [Example 10, 3-(2-methoxypyrimidin-5-yl)-5-methyl-7-(pyridin-4-yl)thieno[2,3-d]pyridazin-4(5H)-one] | –
5 | ++ (++: <100 μl min^−1 mg^−1) | ++ (++: <100 μl min^−1 mg^−1) | Cn1nc(-c2ccncc2)c2scc(-c3ccc(F)nc3)c2c1=O.O=C(O)C(F)(F)F.O=C(O)C(F)(F)F [Example 27, 3-(6-fluoropyridin-3-yl)-5-methyl-7-(pyridin-4-yl)thieno[2,3-d]pyridazin-4(5H)-one bis(trifluoroacetate)] | –
6 | ++ (++: <100 μl min^−1 mg^−1) | ++ (++: <100 μl min^−1 mg^−1) | COc1ccccc1-c1csc2c(-c3ccncc3)nn(C)c(=O)c12.O=C(O)C(F)(F)F [Example 39, 3-(2-methoxyphenyl)-5-methyl-7-(pyridin-4-yl)thieno[2,3-d]pyridazin-4(5H)-one trifluoroacetate] | –
7 | ++ (++: <100 μl min^−1 mg^−1) | ++ (++: <100 μl min^−1 mg^−1) | Cn1nc(-c2ccncc2)c2scc(N3CCNCC3)c2c1=O [Example 12, 5-methyl-3-(piperazin-1-yl)-7-(pyridin-4-yl)thieno[2,3-d]pyridazin-4(5H)-one (dihydrochloride salt)] | –
8 | + (+: 100-220 μl min^−1 mg^−1) | + (+: 100-220 μl min^−1 mg^−1) | Cn1nc(-c2ccncc2)c2scc(-c3cc4ccccc4s3)c2c1=O.O=C(O)C(F)(F)F [Example 23, 3-(1-benzothiophen-2-yl)-5-methyl-7-(pyridin-4-yl)thieno[2,3-d]pyridazin-4(5H)-one trifluoroacetate] | –
9 | – | ++ (++: <100 μl min^−1 mg^−1) | Cn1nc(-c2ccncc2)c2scc(-c3cccnc3)c2c1=O.O=C(O)C(F)(F)F [Example 15, 5-methyl-3-(pyridin-3-yl)-7-(pyridin-4-yl)thieno[2,3-d]pyridazin-4(5H)-one bis(trifluoroacetate)] | ∘ (∘ not avialable or >220 μl min^−1 mg^−1)
10 | ++ (++: <100 μl min^−1 mg^−1) | + (+: 100-220 μl min^−1 mg^−1) | Cn1nc(-c2ccncc2)c2scc(-c3cccc(F)c3)c2c1=O.O=C(O)C(F)(F)F [Example 31, 3-(3-fluorophenyl)-5-methyl-7-(pyridin-4-yl)thieno[2,3-d]pyridazin-4(5H)-one trifluoroacetate] | –

More lines, now with the values behind:

Row | Structure (SMILES) | Rat mCl [1] | Human mCl [2] | Rat mCl ([1]; bis(trifluoroacetate))
11 | Cn1nc(-c2ccncc2)c2scc(-c3ccc(C(=O)NC4CC4)cc3)c2c1=O.O=C(O)C(F)(F)F [Example 40, N-cyclopropyl-4-[5-methyl-4-oxo-7-(pyridin-4-yl)-4,5-dihydrothieno[2,3-d]pyridazin-3-yl]benzamide trifluoroacetate] | ++ (++: <100 μl min^−1 mg^−1) | ++ (++: <100 μl min^−1 mg^−1) | –
12 | CC(C)(C)n1nc(-c2ccncc2)c2scc(-c3ccncc3)c2c1=O [Example 132, 5-tert-butyl-3,7-di(pyridin-4-yl)thieno[2,3-d]pyridazin-4(5H)-one] | ++ (++: <100 μl min^−1 mg^−1) | + (+: 100-220 μl min^−1 mg^−1) | –
13 | Cn1nc(-c2ccncc2)c2scc(-c3csc4ccccc34)c2c1=O.O=C(O)C(F)(F)F [Example 26, 3-(1-benzothiophen-3-yl)-5-methyl-7-(pyridin-4-yl)thieno[2,3-d]pyridazin-4(5H)-one trifluoroacetate] | ∘ (∘ not avialable or >220 μl min^−1 mg^−1) | + (+: 100-220 μl min^−1 mg^−1) | –
14 | Cn1nc(-c2ccncc2)c2scc(-c3cccc(C(=O)N4CCOCC4)c3)c2c1=O [Example 32, 5-methyl-3-[3-(morpholin-4-ylcarbonyl)phenyl]-7-(pyridin-4-yl)thieno[2,3-d]pyridazin-4(5H)-one trifluoroacetate] | ++ (++: <100 μl min^−1 mg^−1) | ++ (++: <100 μl min^−1 mg^−1) | –
15 | Cn1nc(OCc2ccc3c(c2)CN(C(=O)OC(C)(C)C)C3)c2scc(-c3ccncc3)c2c1=O [Example 80, tert-butyl 5-({[5-methyl-4-oxo-3-(pyridin-4-yl)-4,5-dihydrothieno[2,3-d]pyridazin-7-yl]oxy}methyl)-1,3-dihydro-2H-isoindole-2-carboxylate] | ++ (++: <100 μl min^−1 mg^−1) | ++ (++: <100 μl min^−1 mg^−1) | –
16 | Cn1nc(-c2ccccc2C(N)=O)c2scc(-c3ccncc3)c2c1=O [Example 98, 2-[5-methyl-4-oxo-3-(pyridin-4-yl)-4,5-dihydrothieno[2,3-d]pyridazin-7-yl]benzamide] | ++ (++: <100 μl min^−1 mg^−1) | ++ (++: <100 μl min^−1 mg^−1) | –
17 | Cn1nc(-c2ccncc2)c2scc(-c3cccc(-n4cccn4)c3)c2c1=O.O=C(O)C(F)(F)F.O=C(O)C(F)(F)F [Example 24, 5-methyl-3-[3-(1H-pyrazol-1-yl)phenyl]-7-(pyridin-4-yl)thieno[2,3-d]pyridazin-4(5H)-one bis(trifluoroacetate)] | + (+: 100-220 μl min^−1 mg^−1) | ∘ (∘ not avialable or >220 μl min^−1 mg^−1) | –
18 | Cn1nc(-c2ccncc2)c2scc(N3CCC(O)CC3)c2c1=O [Example 4, 3-(4-hydroxypiperidin-1-yl)-5-methyl-7-(pyridin-4-yl)thieno[2,3-d]pyridazin-4(5H)-one] | ++ (++: <100 μl min^−1 mg^−1) | ++ (++: <100 μl min^−1 mg^−1) | –
19 | CN1CCN(Cc2ccc(-c3csc4c(-c5ccncc5)nn(C)c(=O)c34)cc2)CC1.O=C(O)C(F)(F)F.O=C(O)C(F)(F)F.O=C(O)C(F)(F)F [Example 43, 5-methyl-3-{4-[(4-methylpiperazin-1-yl)methyl]phenyl}-7-(pyridin-4-yl)thieno[2,3-d]pyridazin-4(5H)-one tris(trifluoroacetate)] | ++ (++: <100 μl min^−1 mg^−1) | ++ (++: <100 μl min^−1 mg^−1) | –
20 | Cn1nc(OCC2CCC(F)(F)CC2)c2scc(-c3ccncc3)c2c1=O [Example 66, 7-[(4,4-difluorocyclohexyl)methoxy]-5-methyl-3-(pyridin-4-yl)thieno[2,3-d]pyridazin-4(5H)-one] | ++ (++: <100 μl min^−1 mg^−1) | ++ (++: <100 μl min^−1 mg^−1) | –
21 | Cn1nc(-c2ccncc2)c2scc(-c3cnn(Cc4ccccc4)c3)c2c1=O.O=C(O)C(F)(F)F.O=C(O)C(F)(F)F [Example 41, 3-(1-benzyl-1H-pyrazol-4-yl)-5-methyl-7-(pyridin-4-yl)thieno[2,3-d]pyridazin-4(5H)-one bis(trifluoroacetate)] | ++ (++: <100 μl min^−1 mg^−1) | + (+: 100-220 μl min^−1 mg^−1) | –
22 | Cn1cc(-c2csc3c(-c4ccncc4)nn(C)c(=O)c23)cn1.O=C(O)C(F)(F)F [Example 37, 5-methyl-3-(1-methyl-1H-pyrazol-4-yl)-7-(pyridin-4-yl)thieno[2,3-d]pyridazin-4(5H)-one trifluoroacetate] | + (+: 100-220 μl min^−1 mg^−1) | ++ (++: <100 μl min^−1 mg^−1) | –
23 | Cn1nc(-c2ccncc2)c2scc(-c3ccc(NS(C)(=O)=O)cc3)c2c1=O.O=C(O)C(F)(F)F [Example 33, N-{4-[5-methyl-4-oxo-7-(pyridin-4-yl)-4,5-dihydrothieno[2,3-d]pyridazin-3-yl]phenyl}methanesulfonamide trifluoroacetate] | ∘ (∘ not avialable or >220 μl min^−1 mg^−1) | ++ (++: <100 μl min^−1 mg^−1) | –
24 | Cn1nc(OCC2CCNCC2)c2scc(-c3ccncc3)c2c1=O.O=C(O)C(F)(F)F [Example 125, 5-methyl-7-(piperidin-4-ylmethoxy)-3-(pyridin-4-yl)thieno[2,3-d]pyridazin-4(5H)-one bis(trifluoroacetate)] | ++ (++: <100 μl min^−1 mg^−1) | ++ (++: <100 μl min^−1 mg^−1) | –
25 | Cn1nc(-c2ccncc2)c2scc(CN3CCOCC3)c2c1=O [Example 13, 5-methyl-3-(morpholin-4-ylmethyl)-7-(pyridin-4-yl)thieno[2,3-d]pyridazin-4(5H)-one] | + (+: 100-220 μl min^−1 mg^−1) | + (+: 100-220 μl min^−1 mg^−1) | –
